The values below come from article PMC4694564 (Molecular pharmaceutics, 2015).

Data set [1] concerns the target T1, carboxylesterase 1 (CES1) (Homo sapiens, UniProt P23141).
T1 sequence (P23141 18-567): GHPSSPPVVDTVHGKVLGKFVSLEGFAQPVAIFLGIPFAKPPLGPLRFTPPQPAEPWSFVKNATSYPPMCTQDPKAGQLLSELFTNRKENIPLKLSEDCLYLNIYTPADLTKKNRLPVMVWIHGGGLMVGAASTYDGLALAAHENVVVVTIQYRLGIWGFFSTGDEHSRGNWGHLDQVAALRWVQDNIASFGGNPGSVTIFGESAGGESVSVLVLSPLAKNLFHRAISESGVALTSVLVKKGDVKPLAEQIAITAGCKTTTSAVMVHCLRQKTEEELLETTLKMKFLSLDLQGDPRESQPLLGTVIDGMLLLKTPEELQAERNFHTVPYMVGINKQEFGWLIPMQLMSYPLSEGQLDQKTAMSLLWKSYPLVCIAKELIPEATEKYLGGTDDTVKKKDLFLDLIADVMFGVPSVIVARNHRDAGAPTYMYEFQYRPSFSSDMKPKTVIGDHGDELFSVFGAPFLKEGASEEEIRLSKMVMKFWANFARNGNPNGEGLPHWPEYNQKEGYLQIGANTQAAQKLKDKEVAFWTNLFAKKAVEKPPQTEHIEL
The experiment in a line: inhibition of recombinant human CES1. It is filed as biochemical.

Data set [2] concerns the target T2, carboxylesterase 2 (CES2) (Homo sapiens, UniProt O00748).
T2 sequence (O00748 27-559): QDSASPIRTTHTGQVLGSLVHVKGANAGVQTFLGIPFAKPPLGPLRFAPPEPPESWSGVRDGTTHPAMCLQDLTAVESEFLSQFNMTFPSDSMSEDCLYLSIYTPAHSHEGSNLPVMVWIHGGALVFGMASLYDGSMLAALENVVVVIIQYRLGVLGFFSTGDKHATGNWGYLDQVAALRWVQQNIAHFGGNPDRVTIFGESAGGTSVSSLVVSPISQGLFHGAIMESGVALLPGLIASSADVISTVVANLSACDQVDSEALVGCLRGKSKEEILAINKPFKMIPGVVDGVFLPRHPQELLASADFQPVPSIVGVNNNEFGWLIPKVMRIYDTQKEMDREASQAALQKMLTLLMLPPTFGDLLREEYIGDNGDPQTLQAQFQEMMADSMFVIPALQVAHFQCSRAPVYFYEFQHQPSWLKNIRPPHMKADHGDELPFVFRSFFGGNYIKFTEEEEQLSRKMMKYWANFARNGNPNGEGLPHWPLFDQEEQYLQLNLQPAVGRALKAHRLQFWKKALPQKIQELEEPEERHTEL
The experiment in a line: inhibition of recombinant human CES2. It is filed as biochemical.

Substrate in the data set “purified protein”: CCOC(=O)C1=C[C@@H](OC(CC)CC)[C@H](NC(C)=O)[C@@H](N)C1
The experiment in a line: purified protein. It is filed as biochemical, Homo sapiens.

Broadly, the IC50 is the concentration at which inhibition is half-maximal. As for `Cc1cc(OC(=O)NC2CCCCC2)ccc1F` [WWL50, 4-fluoro-3-methylphenyl cyclohexylcarbamate], the IC50 is 4.3 ± 0.6 nM in data set [1] and 429 ± 2.6 nM in data set [2].

B1: carboxylesterase 1 (CES1) (Homo sapiens) (protein)
chain: T1 sequence (P23141 18-567)
What is called Km is the substrate concentration at which the rate is half of its maximum. In the case of B1, the Km in the data set “purified protein” was 2900 µM.
